Test results published in patent US20240067632A1, “WEE1 Degrading Compounds and Uses Thereof” (Bristol-Myers Squibb Company, priority 2022, published 2024).
Read-outs that look alike come from different tables or passages of the source.

Experiments:
WEE1 = molecular target: T1, WEE1 (Homo sapiens, UniProt P30291+Q96SW2); test: WEE1-ePL degradation assay (LentiX-WEE1-ePL-GSPT1-ND cells, InCELL Hunter luminescence, 4 h); type: cell-based; conditions: 293T-LentiX WEE1-ePL cells; for DC50: read-out: 293T-LentiX WEE1-ePL Degradation 4 hr (EC50)
T1 construct: C-terminal ePL-tagged (DiscoverX, Fremont, CA) full-length WEE1 expression construct; expressed in transfected cells; host or cells: LentiX-HEK293T (Invitrogen), lentiviral transduction; co-expressing GSPT1-GN (G576N, lacking the first 158 amino acids)
How it was run: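 LentiX-HEK293T cells stably expressing C-terminally ePL-tagged full-length WEE1 were treated with compounds in a 10-point, 3-fold dilution series starting at 1 uM or 10 uM for 4 h at 37 °C. Remaining WEE1-ePL was detected by InCELL Hunter luminescence, and EC50, Ymin and Ymax came from a four-parameter logistic fit against DMSO control.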

MKN45 cells = test: MKN45 cell proliferation assay (Cell-Titer-Glo, 120 h); type: cell-based; conditions: for EC50: Homo sapiens, MKN-45, 120 h, Cell-Titer-Glo, read-out: MKN45 Cell Prolif. 120 hr (EC50); for MKN45 Cell Prolif. 120 hr (Ymin-Obs): minimal percent of DMSO control observed in the concentrations tested
How it was run: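 Growth inhibition was read as blank-corrected Cell-Titer-Glo luminescence expressed as percent DMSO control after 120 h at 37 C, 400 cells/well. Compounds tested in triplicate as 10-point half-log series from 1 or 10 uM, 0.1% DMSO; four-parameter fit gave EC50, and lowest observed percent control was reported as Ymin-obs.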

[1] = lower limit of the fit (0 = luciferase inhibitor, Ymax = DMSO control)
[2] = lower limit of the fit (Ymin=0 luciferase inhibitor, Ymax DMSO control)

SMILES | 293T-LentiX WEE1-ePL Degradation 4 hr (Ymin) (WEE1; [1]) | DC50 (WEE1) [µM] | EC50 (MKN45 cells; growth inhibition) [µM] | 293T-LentiX WEE1-ePL Degradation 4 hr (Ymin) (WEE1; [2]) | EC50 (MKN45 cells) [µM] | MKN45 Cell Prolif. 120 hr (Ymin-Obs) (MKN45 cells)
C[C@@H]1CN(Cc2cc(F)c3nc(C4CCOCC4)ccc3c2)C[C@H]1Oc1ccc2c(c1)CN([C@H]1CCC(=O)NC1=O)C2=O [(3S)-3-(5-{[(3S,4R)-1-{[8-fluoro-2-(oxan-4-yl)quinolin-6-yl]methyl}-4-methylpyrrolidin-3-yl]oxy}-1-oxo-2,3-dihydro-1H-isoindol-2-yl)piperidine-2,6-dione] | – | 0.00105 | – | 33.52 | 0.00142 | 9.05
O=C1CCC(N2Cc3cc(O[C@H]4CCN(Cc5ccc6nc(N7CCC78COC8)ccc6c5)C4)ccc3C2=O)C(=O)N1 (stereo partly drawn) [3-(5-{[(3S)-1-[(2-{6-oxa-1-azaspiro[3.3]heptan-1-yl}quinolin-6-yl)methyl]pyrrolidin-3-yl]oxy}-1-oxo-2,3-dihydro-1H-isoindol-2-yl)piperidine-2,6-dione] | 35 | 0.00617 | 0.00382 | – | – | 8.91
O=C1CCC(N2Cc3cc(O[C@H]4CCN(Cc5ccc6nc(CC(F)F)ccc6c5)C4)ccc3C2=O)C(=O)N1 (stereo partly drawn) [3-(5-{[(3S)-1-{[2-(2,2-difluoroethyl)quinolin-6-yl]methyl}pyrrolidin-3-yl]oxy}-1-oxo-2,3-dihydro-1H-isoindol-2-yl)piperidine-2,6-dione] | 43.5 | 0.0334 | 0.35 | – | – | 21.74
O=C1CCC(N2Cc3cc(O[C@H]4CCN(Cc5cc6ccc(F)cc6cn5)C4)ccc3C2=O)C(=O)N1 (stereo partly drawn) [3-(5-{[(3S)-1-[(7-fluoroisoquinolin-3-yl)methyl]pyrrolidin-3-yl]oxy}-1-oxo-2,3-dihydro-1H-isoindol-2-yl)piperidine-2,6-dione] | 28.82 | 0.00493 | 0.0248 | – | – | 10.88
O=C1CCC(N2Cc3cc(O[C@H]4CCN(Cc5ccc6nc(OC7CCOCC7)ccc6c5)C4)ccc3C2=O)C(=O)N1 (stereo partly drawn) [3-(5-{[(3S)-1-{[2-(oxan-4-yloxy)quinolin-6-yl]methyl}pyrrolidin-3-yl]oxy}-1-oxo-2,3-dihydro-1H-isoindol-2-yl)piperidine-2,6-dione] | 33 | 0.00452 | 0.00983 | – | – | 13.54
N#Cc1ccc2cc(CN3C[C@@H](Oc4ccc5c(c4)CN(C4CCC(=O)NC4=O)C5=O)C(F)(F)C3)ccc2n1 (stereo partly drawn) [6-{[(4R)-4-{[2-(2,6-dioxopiperidin-3-yl)-1-oxo-2,3-dihydro-1H-isoindol-5-yl]oxy}-3,3-difluoropyrrolidin-1-yl]methyl}quinoline-2-carbonitrile] | 30.83 | 0.0202 | 0.0229 | – | – | 22.8
O=C1CCC(N2Cc3cc(O[C@H]4CCN(Cc5ccc6nc(Cl)ccc6c5)C4)ccc3C2=O)C(=O)N1 (stereo partly drawn) [3-(5-{[(3S)-1-[(2-chloroquinolin-6-yl)methyl]pyrrolidin-3-yl]oxy}-1-oxo-2,3-dihydro-1H-isoindol-2-yl)piperidine-2,6-dione] | 29.2 | 0.00282 | 0.00958 | – | – | 12.57
O=C1CCC(N2Cc3cc(O[C@H]4CCN(Cc5cc6ccc(C7CCOCC7)cc6cn5)C4)ccc3C2=O)C(=O)N1 (stereo partly drawn) [3-(5-{[(3S)-1-{[7-(oxan-4-yl)isoquinolin-3-yl]methyl}pyrrolidin-3-yl]oxy}-1-oxo-2,3-dihydro-1H-isoindol-2-yl)piperidine-2,6-dione] | 29.75 | 0.00146 | 0.00209 | – | – | 8.822
O=C1CCC(N2Cc3cc(O[C@@H]4CN(Cc5ccc6nc(C7CCOCC7)ccc6c5)C[C@H]4F)ccc3C2=O)C(=O)N1 (stereo partly drawn) [3-(5-{[(3R,4R)-4-fluoro-1-{[2-(oxan-4-yl)quinolin-6-yl]methyl}pyrrolidin-3-yl]oxy}-1-oxo-2,3-dihydro-1H-isoindol-2-yl)piperidine-2,6-dione] | 36.81 | 0.0146 | 0.0286 | – | – | 30.89
COC[C@H]1CCC[C@@H]1c1ccc2cc(CN3CC[C@H](Oc4ccc5c(c4)CN(C4CCC(=O)NC4=O)C5=O)C3)ccc2n1 (stereo partly drawn) [3-(5-{[(3S)-1-({2-[(1S,2S)-2-(methoxymethyl)cyclopentyl]quinolin-6-yl}methyl)pyrrolidin-3-yl]oxy}-1-oxo-2,3-dihydro-1H-isoindol-2-yl)piperidine-2,6-dione] | – | 0.00538 | – | 27.68 | 0.0119 | 11.37
CN(C)C1CCN(c2ccc3cc(CN4CC[C@H](Oc5ccc6c(c5)CN(C5CCC(=O)NC5=O)C6=O)C4)ccc3n2)CC1 (stereo partly drawn) [3-(5-{[(3S)-1-({2-[4-(dimethylamino)piperidin-1-yl]quinolin-6-yl}methyl)pyrrolidin-3-yl]oxy}-1-oxo-2,3-dihydro-1H-isoindol-2-yl)piperidine-2,6-dione] | – | 0.0262 | – | 32.07 | 0.0197 | 15.14
O=C1CCC(N2Cc3cc(O[C@@H]4CN(Cc5ccc6nc([C@H]7CCOC7)ccc6c5)CC4(F)F)ccc3C2=O)C(=O)N1 (stereo partly drawn) [3-(5-{[(3R)-4,4-difluoro-1-({2-[(3R)-oxolan-3-yl]quinolin-6-yl}methyl)pyrrolidin-3-yl]oxy}-1-oxo-2,3-dihydro-1H-isoindol-2-yl)piperidine-2,6-dione] | – | 0.00849 | – | 30.81 | 0.00842 | 8.764

The next lines start with results.

293T-LentiX WEE1-ePL Degradation 4 hr (Ymin) (WEE1; [1]) | DC50 (WEE1) [µM] | EC50 (MKN45 cells; growth inhibition) [µM] | 293T-LentiX WEE1-ePL Degradation 4 hr (Ymin) (WEE1; [2]) | EC50 (MKN45 cells) [µM] | SMILES | MKN45 Cell Prolif. 120 hr (Ymin-Obs) (MKN45 cells)
42 | 0.0236 | 0.051 | – | – | O=C1CCC(N2Cc3cc(O[C@H]4CCN(Cc5ccc6nc(N7CCS(=O)(=O)CC7)ncc6c5)C4)ccc3C2=O)C(=O)N1 (stereo partly drawn) [4-(6-{[(3S)-3-{[2-(2,6-dioxopiperidin-3-yl)-1-oxo-2,3-dihydro-1H-isoindol-5-yl]oxy}pyrrolidin-1-yl]methyl}quinazolin-2-yl)-1λ^6-thiomorpholine-1,1-dione] | 17.09
32 | 0.1 | 0.0934 | – | – | CN1CC(c2ccc3cc(CN4CC[C@H](Oc5ccc6c(c5)CN(C5CCC(=O)NC5=O)C6=O)C4)ccc3n2)C1 (stereo partly drawn) [3-(5-{[(3S)-1-{[2-(1-methylazetidin-3-yl)quinolin-6-yl]methyl}pyrrolidin-3-yl]oxy}-1-oxo-2,3-dihydro-1H-isoindol-2-yl)piperidine-2,6-dione] | 11.97
32.12 | 0.075 | 0.0293 | – | – | O=C1CC[C@H](N2Cc3cc(O[C@H]4CCN(Cc5ccc6nc(C7CCOCC7)ncc6c5)C4)ccc3C2=O)C(=O)N1 [(3S)-3-(5-{[(3S)-1-{[2-(oxan-4-yl)quinazolin-6-yl]methyl}pyrrolidin-3-yl]oxy}-1-oxo-2,3-dihydro-1H-isoindol-2-yl)piperidine-2,6-dione] | 9.327
31.5 | 0.00482 | 0.0176 | – | – | CC1(C)COCCN1c1ncc2cc(CN3CC[C@H](Oc4ccc5c(c4)CN(C4CCC(=O)NC4=O)C5=O)C3)ccc2n1 (stereo partly drawn) [3-(5-{[(3S)-1-{[2-(3,3-dimethylmorpholin-4-yl)quinazolin-6-yl]methyl}pyrrolidin-3-yl]oxy}-1-oxo-2,3-dihydro-1H-isoindol-2-yl)piperidine-2,6-dione] | 17.3
39 | 0.0801 | 0.0766 | – | – | O=C1CCC(N2Cc3cc(O[C@H]4CCN(Cc5ccc6nc(N7C[C@H]8C[C@@H]7CO8)ncc6c5)C4)ccc3C2=O)C(=O)N1 (stereo partly drawn) [3-(5-{[(3S)-1-({2-[(1R,4R)-2-oxa-5-azabicyclo[2.2.1]heptan-5-yl]quinazolin-6-yl}methyl)pyrrolidin-3-yl]oxy}-1-oxo-2,3-dihydro-1H-isoindol-2-yl)piperidine-2,6-dione] | 16.57
– | 0.00927 | – | 39.39 | 0.00863 | CC(=O)N1CCN(c2ncc3cc(CN4CC[C@H](Oc5ccc6c(c5)CN([C@H]5CCC(=O)NC5=O)C6=O)C4)ccc3n2)CC1 [(3S)-3-(5-{[(3S)-1-{[2-(4-acetylpiperazin-1-yl)quinazolin-6-yl]methyl}pyrrolidin-3-yl]oxy}-1-oxo-2,3-dihydro-1H-isoindol-2-yl)piperidine-2,6-dione] | 9.801
34 | 0.00736 | 0.0117 | – | – | O=C1CC[C@H](N2Cc3cc(O[C@H]4CCN(Cc5ccc6nc(N7CCOCC7)ncc6c5)C4)ccc3C2=O)C(=O)N1 [(3S)-3-(5-{[(3S)-1-{[2-(morpholin-4-yl)quinazolin-6-yl]methyl}pyrrolidin-3-yl]oxy}-1-oxo-2,3-dihydro-1H-isoindol-2-yl)piperidine-2,6-dione] | 11.86
